Measured values published in patent US20030176356A1, “Endothelin antagonists and endothelin-converting enzyme inhibitors for the treatment of glaucoma” (University of North Texas Health Science Center, priority 2001, published 2003).
“Also recorded” adds a separate entry of the source. No end group written: not given here.

Tests used:
NOS-2 = NOS-2 mRNA expression in retina after intravitreal injection, RT-PCR; format: in vivo, Brown Norway rats; details: intravitreal 2 mmoles, 4 hours or 24 hours post-injection
Description: Elevated NOS-2 expression and peroxynitrite labeling are observed in glaucomatous retina and optic nerve head and are considered to be neurotoxic, which promote retinal ganglion cell death. ET-1 was injected in the left eye (OS) of rats while the right eye served as an contralateral control. Saline was also injected in some rats.

NOS2 = NOS2 mRNA expression in HNPE cells by RT-PCR; format: cell-based, human; details: 100 nM ET-1, 24 hours, qualitative, vs non-treated controls
Description: Utilizing the powerful technique of RT-PCR on mRNA transcripts of NOS2, the amplified products were separated on an agarose gel and compared with untreated control RT_PCR products. […] RT-PCR products of the β-actin housekeeping gene were also amplified and visualized on an agarose gel as a mRNA isolation control.

rat optic nerve = test: Anterograde axonal transport in rat optic nerve after intravitreal injection (35S-methionine pulse label); format: in vivo; details: for effect of ET-1 on anterograde axonal transport: intravitreal 2 nmol
Description: Newly synthesized proteins undergoing anterograde axonal transport in the optic nerve were pulse-labeled in either the presence or absence of endothelin as modified from previously published methods (van Biesen et al., 1995). Modifications to previously published methods were minimal and involved the replacement of a distilled water vehicle for resuspension of radiolabeled precursors with either HEPES buffered ET-1 or HEPES vehicle buffer alone. ^35S-Methionine (Easytag EXPRESS PROTEIN LABELING MIX, Dupont-NEN Life Sciences, Boston, Mass.) was lyophilized and resuspended in either vehicle alone (10 mM HEPES, pH 7.4, Sigma Chemical Co., St Louis, Mo.) or in vehicle containing 500 μM ET-1 (Bachem, Belmont, Calif.). Rats were anesthetized by Metofane inhalation, and 0.8 mCi (4 μl) of radiolabel in vehicle either plus or minus ET-1 (final dose 2 mmols), was injected into the vitreous of the left eye using a 30 gauge needle attached to a Hamilton syringe (microliter #710, 22s gauge, Hamilton Co., Reno, Nev.) by polyethylene tubing (PE-20, Clay Adams Brand, Becton Dickson and Co., Sparks, Md.) (van Biesen et al., 1995). In one experiment, ET-3 was substituted for ET-1, using the same methods (2 mmol dose, 28 hour ISI, N=7 for controls, N=7 for experimentals). […] One minute after injection, all retinas appeared normal in color. (Based upon these initial observations, further observations of the retinas were not performed). Information on the dose-related effect(s) of intravitreal ET-1 in this species (i.e. rat) were unavailable, and physiological/pathological concentrations of endothelin in the optic nerve head's microenvironment are generally unknown. Therefore, dose selection was made on the basis of a small pilot study, using these methods and measuring the total pulse-labeled protein axonally transported into the rat optic nerve. (An N of 3 rats in every group was used only for the pilot study, 4 hour ISI, data not shown). […] However, significant effects on axonal transport (4 hour ISI) were only seen in the pilot study for the 2 mmol dose. […] Possible effect(s) on non-assayed ocular tissues were not considered in dose selection, as data on these were unavailable for either acute or chronic intravitreal ET-1 administration, in rats.
This technique was employed to determine if endothelin-1 also affected the axonal transport in the optic nerve of rats, which is severely compromised in glaucoma. Harvest and preparation of pulse-labeled optic nerves in animals, wherein animals were anesthetized with metofane at specified times after injection and sacrificed by decapitation. Injection-sacrifice intervals were selected based upon the published characterizations of anterograde axonal transport in rat optic nerve for specific marker proteins associated with specific classes of axonally transported materials (Table 4) (Elluru et al., 1995; Garner and Lasek, 1981; Garner and Lasek, 1982; Jahn et al., 1985). Seven vehicle-treated animals and seven endothelin-treated animals were sacrificed at each of the specified times (4, 24, 28, 32, 36 hours and 4, 21 days). Optic nerves were removed, flash frozen with crushed dry ice, and sectioned frozen. Nerves were sectioned to aid complete homogenization, and to provide additional data for future studies. The frozen sections (2 mm in length) were numbered as segments 1-4 (from proximal to distal), and glass-on glass homogenized in 100 μlof BUST sample buffer (2% β-mercaptoethanol, 8M urea, 1% SDS, 0.1M Tris, 0.02% phenol red, pH 7.4). A 25% aliquot of each homogenized segment was counted in a liquid scintillation counter, and counts were corrected for decay, quench, and counting efficiency.

[1] = test system: human non-pigmented ciliary epithelial (HNPE) cells; test: Nitric oxide release from HNPE cells (nitrite, Griess colorimetric assay); format: cell-based; details: 100 nM ET-1, 24 hours; control 14.4±1.8 μM nitrite
Description: The effect of endothelin-1 (ET-1) and PD-142893, an ETA/B receptor antagonist, on nitric oxide (“NO”) release from human non-pigmented ciliary epithelial (HNPE) cells are illustrated in FIG. 6. The NO released into the culture media from HNPE cells grown in 24-well plates and treated with ET-1 (100 nM) for 24 hours was converted to nitrites. The total amount of nitrites was measured using the Griess colorimetric assay. HNPE cells were pre-treated with PD-142893 (1 μM) for 30 minutes and then 100 nM ET-1 was also added and incubated for 24 hours. The values in FIG. 6 represent the mean±SEM of a ratio between the nitrite produced under experimental conditions divided by the nitrite produced in control cells, which corresponded to 14.4±1.8 μM and controls were expressed as 100% (n=3). Statistical significance of the nitrite released from ET-1 (100 nM) treatment versus the control are denoted with an asterisk (“*”). Statistical significance of the nitrite released from PD-142893+ET-1 (100 nM) treatment versus that of ET-1 (100 nM) are denoted as a double asterisk (“**”) The statistical differenced were determined by one-way ANOVA and Student-Newman-Keuls multiple comparison test (p<0.05). Thus, addition of ET-1 increased the nitrite levels nearly 2-fold when compared to control cells or cells treated with PD-142893.

## ET-1: active 21 amino acid residue endothelin peptide (Bachem) (CSCSSLMDKECVYFCHLDIIW; ends and bridges not checked; cysteine pairing not given here; UniProt P05305 53-73, looked up)
NOS-2
  mRNA expression of inducible nitric oxide synthase-2 (NOS-2) in the retina: causes the mRNA expression of inducible nitric oxide synthase-2 (NOS-2)
NOS2
  NOS2 mRNA levels: elevated mRNA levels of NOS2
Rat optic nerve; 0.3, 0.4, and 2 mmol doses intravitreal, 4 hour ISI, significant only for the 2 mmol dose
  total pulse-labeled protein axonally transported into the rat optic nerve (pilot study): trend of increasingly enhanced axonal transport
Rat optic nerve; ISI 4 hr, fast component, MBO/small tubulovesicles
  effect of ET-1 on anterograde axonal transport: significant enhancement; also recorded: increased
Rat optic nerve; ISI 24 hr, fast component, MBO/small tubulovesicles
  effect of ET-1 on anterograde axonal transport: significant enhancement; also recorded: increased
Rat optic nerve; ISI 28 hr, fast component, MBO/mitochondria
  effect of ET-1 on anterograde axonal transport: significant reduction; also recorded: decreased
Rat optic nerve; ISI 32 hr, fast component, MBO/mitochondria
  effect of ET-1 on anterograde axonal transport: significant reduction; also recorded: decreased
Rat optic nerve; ISI 36 hr, fast component, MBO/mitochondria
  effect of ET-1 on anterograde axonal transport: significant reduction; also recorded: decreased
Rat optic nerve; ISI 4 days, SCa, cytoplasmic matrix proteins
  effect of ET-1 on anterograde axonal transport: significant reduction; also recorded: decreased
Rat optic nerve; ISI 21 days, SCb, cytoskeletal proteins
  effect of ET-1 on anterograde axonal transport: significant reduction; also recorded: decreased
[1]
  increase of nitrite levels compared to control cells: ~2 fold
